# Test results taken from patent publication US4512976A, “Antibiotic stubomycin and process for the production thereof” (The Kitasato Institute, priority 1980, dated 1985).
# Assays:
# [1] = tested on: Pseudomonas aeruginosa; assay: Antimicrobial activity, MIC by agar dilution method; type: cell-based
# [2] = tested on: Xanthomonas oryzae; type: cell-based; details: agar dilution method
# [3] = tested on: Ehrlich ascites carcinoma; assay: Antitumor activity on Ehrlich ascites carcinoma; details: i.p.; for ILS (Increased life span) Ehrlich: vs untreated control
# [4] = tested on: Piricularia oryzae; type: cell-based
# [5] = tested on: Staphylococcus aureus FDA-209P; assay: Antimicrobial activity, MIC by agar dilution method; type: cell-based
# [6] = tested on: Bacillus subtilis PCI 219; assay: as above; type: cell-based; details: Bacillus subtilis PCI 219, agar dilution method
# [7] = tested on: leukemia P388; assay: Antitumor activity on leukemia P388; details: i.p.; for ILS (Increased life span) P388: vs untreated control
# [8] = tested on: Mycobacterium smegmatis; assay: Antimicrobial activity, MIC by agar dilution method; type: cell-based
# [9] = tested on: mice; assay: Acute toxicity in mice; type: in vivo
# Description: Acute toxicity (LD50) in mice; approximately 400 mg/kg (i.p.), and over 1000 mg/kg (p.o.)
# [10] = tested on: Sarcina lutea ATCC 1001; assay: Antimicrobial activity, MIC by agar dilution method; type: cell-based; details: Sarcina lutea ATCC 1001, agar dilution method
# [11] = tested on: Saccharomyces sake; assay: as above; type: cell-based
# [12] = tested on: Microsporum gypseum; assay: as above; type: cell-based
# [13] = tested on: Alternaria kikuchiana; assay: as above; type: cell-based
# [14] = tested on: Trichophyton interdigitalis; assay: as above; type: cell-based
# [15] = tested on: Escherichia coli NIHJ; assay: as above; type: cell-based
# [16] = tested on: Aspergillus niger; assay: as above; type: cell-based
# [17] = tested on: Candida albicans; assay: as above; type: cell-based
# [18] = Day 1, 75 mg/kg/day, total 75 mg/kg
# [19] = Day 1, 150 mg/kg/day, total 150 mg/kg
# [20] = Day 1, 300 mg/kg/day, total 300 mg/kg
# [21] = Days 1, 5, 9, 25 mg/kg/day, total 75 mg/kg
# [22] = Days 1, 5, 9, 50 mg/kg/day, total 150 mg/kg
# [23] = Days 1~9, 8.8 mg/kg/day, total 75 mg/kg
# [24] = Days 1~9, 16.7 mg/kg/day, total 150 mg/kg
# [25] = Days 1~9, 33.3 mg/kg/day, total 300 mg/kg
smiles,measurement,setting,value
CO[C@H]1C[C@@H]2\C=C(C)/C=C/C=C\C(=O)N[C@H](c3ccccc3)C/C=C/CC[C@H](O)CC(=O)C2=C1O [stubomycin],Minimum inhibitory concentration (MIC),[1],> 200 µg/mL
same,Minimum inhibitory concentration (MIC),[2],> 100 µg/mL
same,MSD (Median survival day) Ehrlich,[3]; [18],28 days
same,"Number of cured mice, Ehrlich",[3]; [18],1
same,ILS (Increased life span) Ehrlich,[3]; [18],47%
same,MSD (Median survival day) Ehrlich,[3]; [19],51 days
same,ILS (Increased life span) Ehrlich,[3]; [19],168%
same,MSD (Median survival day) Ehrlich,[3]; [20],21 days
same,ILS (Increased life span) Ehrlich,[3]; [20],11%
same,MSD (Median survival day) Ehrlich,[3]; [21],33 days
same,"Number of cured mice, Ehrlich",[3]; [21],1
same,ILS (Increased life span) Ehrlich,[3]; [21],74%
same,MSD (Median survival day) Ehrlich,[3]; [22],16 days
same,ILS (Increased life span) Ehrlich,[3]; [22],-16%
same,ILS (Increased life span) Ehrlich,[3]; [23],11%
same,MSD (Median survival day) Ehrlich,[3]; [24],50 days
same,"Number of cured mice, Ehrlich",[3]; [24],1
same,ILS (Increased life span) Ehrlich,[3]; [24],163%
same,MSD (Median survival day) Ehrlich,[3]; [25],33 days
same,"Number of cured mice, Ehrlich",[3]; [25],1
same,ILS (Increased life span) Ehrlich,[3]; [25],74%
same,MSD (Median survival day) Ehrlich,"[3]; Days 1~9, total 75 mg/kg",21 days
same,Minimum inhibitory concentration (MIC),[4],3.1 µg/mL
same,Minimum inhibitory concentration (MIC),[5],3.1 µg/mL
same,Minimum inhibitory concentration (MIC),[6],0.4 µg/mL
same,MSD (Median survival day) P388,[7]; [18],17 days
same,ILS (Increased life span) P388,[7]; [18],42%
same,MSD (Median survival day) P388,[7]; [19],17 days
same,ILS (Increased life span) P388,[7]; [19],42%
same,MSD (Median survival day) P388,[7]; [20],17 days
same,ILS (Increased life span) P388,[7]; [20],42%
same,MSD (Median survival day) P388,[7]; [21],16 days
same,ILS (Increased life span) P388,[7]; [21],33%
same,MSD (Median survival day) P388,[7]; [22],15 days
same,ILS (Increased life span) P388,[7]; [22],25%
same,MSD (Median survival day) P388,[7]; [23],15 days
same,ILS (Increased life span) P388,[7]; [23],25%
same,MSD (Median survival day) P388,[7]; [24],11 days
same,ILS (Increased life span) P388,[7]; [24],-8%
same,MSD (Median survival day) P388,[7]; [25],9 days
same,ILS (Increased life span) P388,[7]; [25],-25%
same,Minimum inhibitory concentration (MIC),[8],3.1 µg/mL
same,Acute toxicity (LD50),[9]; i.p.,approximately 400 mg/kg
same,Acute toxicity (LD50),[9]; p.o.,over 1000 mg/kg
same,Minimum inhibitory concentration (MIC),[10],0.4 µg/mL
same,Minimum inhibitory concentration (MIC),[11],> 200 µg/mL
same,Minimum inhibitory concentration (MIC),[12],12.5 µg/mL
same,Minimum inhibitory concentration (MIC),[13],6.3 µg/mL
same,Minimum inhibitory concentration (MIC),[14],6.3 µg/mL
same,Minimum inhibitory concentration (MIC),[15],> 200 µg/mL
same,Minimum inhibitory concentration (MIC),[16],> 100 µg/mL
same,Minimum inhibitory concentration (MIC),[17],> 100 µg/mL
